From ChEMBL document CHEMBL1201862, “PubChem BioAssay data set” (2004)
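Test compounds were applied to cells in 96-well plates for 48 hours at 5 doses. The concentration for 50% growth inhibition is given as GI50.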 Activity calls are given as the source filed them. Rule as the data show it: active = GI50 up to about 1.1 µM and inactive = higher. Where a SMILES comes first, the peptide text is derived from it. The star is where a group is joined. Boc = CC(C)(C)OC(=O)*

Legend:
Assay in all cases: growth of human tumour cells (NCI), 48 h
ACHN = test system: ACHN
MCF7 = test system: MCF7
HT-29 = test system: HT-29
SNB-19 = test system: SNB-19
HL-60 = test system: HL-60
OVCAR-4 = test system: OVCAR-4
SW-620 = test system: SW-620
MDA-MB-435 = test system: MDA-MB-435
SF-295 = test system: SF-295
KM12 = test system: KM12
OVCAR-5 = test system: OVCAR-5
NCI-H460 = test system: NCI-H460
NCI-H23 = test system: NCI-H23
UACC-62 = test system: UACC-62
UACC-257 = test system: UACC-257
PC-3 = test system: PC-3
HOP-92 = test system: HOP-92
CAKI-1 = test system: CAKI-1

COc1ccccc1[S+]([O-])Nc1ccccc1 (stereo unspecified)
GI50 (ACHN): 87.7 µM (inactive)
GI50 (MCF7): > 100 µM (inactive)
GI50 (HT-29): 50.9 µM (inactive)
GI50 (SNB-19): > 100 µM (inactive)
GI50 (HL-60): 82.8 µM (inactive)
GI50 (OVCAR-4): > 100 µM (inactive)
GI50 (SW-620): 30.7 µM (inactive)
GI50 (MDA-MB-435): 31 µM (inactive)
GI50 (SF-295): > 100 µM (inactive)
GI50 (KM12): 12.5 µM (inactive)
GI50 (OVCAR-5): > 100 µM (inactive)
GI50 (NCI-H460): 88.1 µM (inactive)
GI50 (NCI-H23): > 100 µM (inactive)
GI50 (UACC-62): 10.7 µM (inactive)
GI50 (UACC-257): 50.4 µM (inactive)

COC(=O)C(Cc1c[nH]c2ccccc12)NC(=O)C(Cc1c[nH]c2ccccc12)NC(=O)C(Cc1c[nH]c2ccccc12)NC(=O)OC(C)(C)C (stereo not drawn) (Boc-Trp-Trp-Trp-OMe; configuration not given here)
GI50 (ACHN): 18.1 µM (inactive)
GI50 (MCF7): > 10 µM (inactive)
GI50 (HT-29): 19.2 µM (inactive)
GI50 (SNB-19): 18.9 µM (inactive)
GI50 (HL-60): 16.1 µM (inactive)
GI50 (SW-620): 21.5 µM (inactive)
GI50 (KM12): 21.5 µM (inactive)
GI50 (PC-3): 15.9 µM (inactive)
GI50 (OVCAR-5): 17.9 µM (inactive)
GI50 (NCI-H460): 20.2 µM (inactive)
GI50 (HOP-92): 13.2 µM (inactive)
GI50 (NCI-H23): 16.2 µM (inactive)
GI50 (UACC-62): 18.8 µM (inactive)
GI50 (UACC-257): 32.7 µM (inactive)

O=C(O)c1ccc(Nc2nc3ccccc3nc2C(=O)O)cc1
GI50 (ACHN): > 100 µM (inactive)
GI50 (MCF7): > 100 µM (inactive)
GI50 (HT-29): > 100 µM (inactive)
GI50 (SNB-19): > 100 µM (inactive)
GI50 (HL-60): > 10 µM (inactive)
GI50 (OVCAR-4): > 100 µM (inactive)
GI50 (MDA-MB-435): > 100 µM (inactive)
GI50 (SF-295): > 100 µM (inactive)
GI50 (KM12): > 100 µM (inactive)
GI50 (OVCAR-5): > 100 µM (inactive)
GI50 (NCI-H460): > 100 µM (inactive)
GI50 (HOP-92): > 100 µM (inactive)
GI50 (NCI-H23): > 100 µM (inactive)
GI50 (CAKI-1): > 100 µM (inactive)
GI50 (UACC-62): > 100 µM (inactive)
GI50 (UACC-257): > 100 µM (inactive)

CC1=CCC[C@H]2[C@](C)(CC3=CC(=O)C(SCC(C)C)=CC3=O)[C@@H](C)CC[C@]12C
GI50 (ACHN): 15.6 µM (inactive)
GI50 (MCF7): 9.71 µM (inactive)
GI50 (HT-29): 15.4 µM (inactive)
GI50 (SNB-19): 18.3 µM (inactive)
GI50 (OVCAR-4): 15.3 µM (inactive)
GI50 (SW-620): 17.3 µM (inactive)
GI50 (MDA-MB-435): 15.7 µM (inactive)
GI50 (SF-295): 16.1 µM (inactive)
GI50 (KM12): 11.2 µM (inactive)
GI50 (PC-3): 15 µM (inactive)
GI50 (OVCAR-5): 18.5 µM (inactive)
GI50 (NCI-H460): 14.6 µM (inactive)
GI50 (HOP-92): 4.84 µM (inactive)
GI50 (NCI-H23): 8.99 µM (inactive)
GI50 (CAKI-1): 11.3 µM (inactive)
GI50 (UACC-62): 14.3 µM (inactive)
GI50 (UACC-257): 17.3 µM (inactive)

Cn1/c(=N\S(=O)(=O)c2ccccc2)n(S(=O)(=O)c2ccccc2)c2ccccc21
GI50 (ACHN): 34.5 µM (inactive)
GI50 (HT-29): 35.6 µM (inactive)
GI50 (SNB-19): 89.3 µM (inactive)
GI50 (HL-60): 0.598 µM (active)
GI50 (OVCAR-4): > 100 µM (inactive)
GI50 (SW-620): 93.1 µM (inactive)
GI50 (MDA-MB-435): 58.9 µM (inactive)
GI50 (SF-295): 62.1 µM (inactive)
GI50 (KM12): 26.2 µM (inactive)
GI50 (PC-3): 29.5 µM (inactive)
GI50 (OVCAR-5): > 100 µM (inactive)
GI50 (HOP-92): > 10 µM (inactive)
GI50 (NCI-H23): 61 µM (inactive)
GI50 (CAKI-1): > 100 µM (inactive)
GI50 (UACC-62): > 100 µM (inactive)
GI50 (UACC-257): > 100 µM (inactive)

O=c1[nH]nc(Cc2ccccc2)n1-n1cnnc1
GI50 (ACHN): > 100 µM (inactive)
GI50 (MCF7): > 100 µM (inactive)
GI50 (HT-29): > 100 µM (inactive)
GI50 (SNB-19): > 100 µM (inactive)
GI50 (OVCAR-4): > 100 µM (inactive)
GI50 (SW-620): > 100 µM (inactive)
GI50 (MDA-MB-435): > 100 µM (inactive)
GI50 (SF-295): > 100 µM (inactive)
GI50 (KM12): > 100 µM (inactive)
GI50 (PC-3): > 100 µM (inactive)
GI50 (OVCAR-5): > 100 µM (inactive)
GI50 (HOP-92): > 100 µM (inactive)
GI50 (NCI-H23): > 100 µM (inactive)
GI50 (UACC-62): > 100 µM (inactive)
GI50 (UACC-257): > 100 µM (inactive)

CCc1n[nH]c(=O)n1NC(=O)CCCC(=O)O
GI50 (ACHN): > 100 µM (inactive)
GI50 (MCF7): > 100 µM (inactive)
GI50 (HT-29): > 100 µM (inactive)
GI50 (SNB-19): > 100 µM (inactive)
GI50 (OVCAR-4): > 100 µM (inactive)
GI50 (SW-620): > 100 µM (inactive)
GI50 (MDA-MB-435): > 100 µM (inactive)
GI50 (SF-295): > 100 µM (inactive)
GI50 (KM12): > 100 µM (inactive)
GI50 (PC-3): > 100 µM (inactive)
GI50 (OVCAR-5): > 100 µM (inactive)
GI50 (NCI-H460): > 100 µM (inactive)
GI50 (HOP-92): > 100 µM (inactive)
GI50 (NCI-H23): > 100 µM (inactive)
GI50 (CAKI-1): > 100 µM (inactive)
GI50 (UACC-62): > 100 µM (inactive)
GI50 (UACC-257): > 100 µM (inactive)

c1ccc2c(c1)ccc1nc(-c3ccc4c(c3)OCO4)c3c(c12)CCC3
GI50 (ACHN): > 100 µM (inactive)
GI50 (MCF7): 68.1 µM (inactive)
GI50 (HT-29): 41.1 µM (inactive)
GI50 (SNB-19): > 100 µM (inactive)
GI50 (OVCAR-4): 57.1 µM (inactive)
GI50 (SW-620): > 100 µM (inactive)
GI50 (MDA-MB-435): 59.6 µM (inactive)
GI50 (SF-295): 77.4 µM (inactive)
GI50 (KM12): 34 µM (inactive)
GI50 (PC-3): 56.4 µM (inactive)
GI50 (OVCAR-5): > 100 µM (inactive)
GI50 (NCI-H460): 45.3 µM (inactive)
GI50 (NCI-H23): 60.3 µM (inactive)
GI50 (CAKI-1): > 100 µM (inactive)
GI50 (UACC-62): > 100 µM (inactive)
GI50 (UACC-257): > 100 µM (inactive)

O=C(C[C@@H]1CCCN2CCCC[C@H]12)N1c2ccccc2Sc2ccc(Cl)cc21
GI50 (ACHN): 14.2 µM (inactive)
GI50 (MCF7): 18.2 µM (inactive)
GI50 (HT-29): 10.6 µM (inactive)
GI50 (SNB-19): 16.1 µM (inactive)
GI50 (HL-60): 14.5 µM (inactive)
GI50 (SW-620): 13.9 µM (inactive)
GI50 (MDA-MB-435): 14.5 µM (inactive)
GI50 (SF-295): 19.5 µM (inactive)
GI50 (KM12): 13.3 µM (inactive)
GI50 (PC-3): 13.2 µM (inactive)
GI50 (OVCAR-5): 13.4 µM (inactive)
GI50 (NCI-H460): 14.7 µM (inactive)
GI50 (NCI-H23): 14.7 µM (inactive)
GI50 (CAKI-1): 14.4 µM (inactive)
GI50 (UACC-257): 11.6 µM (inactive)
